ChEMBL document CHEMBL1146200, “In vitro activity of aurein 1.2 alone and in combination with antibiotics against gram-positive nosocomial cocci” (Antimicrob Agents Chemother, 2007)
≈ marks a conversion by molar mass, not a printed value. Non-standard residues stand in square brackets, D forms with d. Residues, ends and D or L forms follow the SMILES beside them. Phg = N[C@H](C(=O)O)c1ccccc1

Legend:
Streptococcus pyogenes = assay: Antimicrobial activity against Streptococcus pyogenes ATCC 19615; type: functional; details: for MIC50 / MIC90: Streptococcus pyogenes, ATCC 19615
Enterococcus faecalis [1] = assay: Antimicrobial activity against vancomycin-resistant Enterococcus faecalis ATCC 51299; type: functional; details: for MIC50 / MIC90: Enterococcus faecalis, ATCC 51299
Staphylococcus aureus [2] = assay: Antimicrobial activity against […] Staphylococcus aureus ATCC 29213; type: functional; details: for MIC50 / MIC90: Staphylococcus aureus, ATCC 29213
Enterococcus faecalis [3] = assay: Antimicrobial activity against vancomycin-susceptible Enterococcus faecalis ATCC 29212; type: functional; details: for MIC50 / MIC90: Enterococcus faecalis, ATCC 29212
A549 = assay: Cytotoxicity against human A549 cells; type: cell-based
Staphylococcus aureus [4] = assay: Antimicrobial activity against […] Staphylococcus aureus ATCC 43300; type: functional; details: for MIC50 / MIC90: Staphylococcus aureus, ATCC 43300

CC[C@H](C)[C@H](NC(=O)[C@H](CCCCN)NC(=O)[C@H](CCCCN)NC(=O)[C@@H](NC(=O)[C@@H](NC(=O)[C@H](CC(=O)O)NC(=O)[C@H](Cc1ccccc1)NC(=O)[C@H](CC(C)C)NC(=O)CN)[C@@H](C)CC)[C@@H](C)CC)C(=O)N[C@@H](C)C(=O)N[C@@H](CCC(=O)O)C(=O)N[C@@H](CO)C(=O)N[C@H](C(N)=O)c1ccccc1 (H-GLFDIIKKIAES[Phg]-NH2)
MBC50 (Streptococcus pyogenes): 4 µg/mL (≈ 2.73 µM)
MBC90 (Streptococcus pyogenes): 8 µg/mL (≈ 5.46 µM)
MIC50 (Streptococcus pyogenes): 2 µg/mL (≈ 1.36 µM)
MIC90 (Streptococcus pyogenes): 4 µg/mL (≈ 2.73 µM)
MBC50 (Enterococcus faecalis [1]): 16 µg/mL (≈ 10.9 µM)
MBC90 (Enterococcus faecalis [1]): 32 µg/mL (≈ 21.8 µM)
MIC50 (Enterococcus faecalis [1]): 8 µg/mL (≈ 5.46 µM)
MIC90 (Enterococcus faecalis [1]): 16 µg/mL (≈ 10.9 µM)
MBC50 (Staphylococcus aureus [2]): 8 µg/mL (≈ 5.46 µM)
MBC90 (Staphylococcus aureus [2]): 16 µg/mL (≈ 10.9 µM)
MIC50 (Staphylococcus aureus [2]): 4 µg/mL (≈ 2.73 µM)
MIC90 (Staphylococcus aureus [2]): 8 µg/mL (≈ 5.46 µM)
MBC50 (Enterococcus faecalis [3]): 16 µg/mL (≈ 10.9 µM)
MBC90 (Enterococcus faecalis [3]): 32 µg/mL (≈ 21.8 µM)
MIC50 (Enterococcus faecalis [3]): 8 µg/mL (≈ 5.46 µM)
MIC90 (Enterococcus faecalis [3]): 16 µg/mL (≈ 10.9 µM)
Activity (A549): 2%
MBC50 (Staphylococcus aureus [4]): 8 µg/mL (≈ 5.46 µM)
MBC90 (Staphylococcus aureus [4]): 16 µg/mL (≈ 10.9 µM)
MIC50 (Staphylococcus aureus [4]): 4 µg/mL (≈ 2.73 µM)
MIC90 (Staphylococcus aureus [4]): 8 µg/mL (≈ 5.46 µM)

CC[C@H]1OC(=O)[C@H](C)[C@@H](O[C@H]2C[C@@](C)(OC)[C@@H](O)[C@H](C)O2)[C@H](C)[C@@H](O[C@@H]2O[C@H](C)C[C@H](N(C)C)[C@H]2O)[C@](C)(OC)C[C@@H](C)C(=O)[C@H](C)[C@@H](O)[C@]1(C)O [CLARITHROMYCIN]
MBC50 (Streptococcus pyogenes): 8 µg/mL (≈ 10.7 µM)
MBC90 (Streptococcus pyogenes): 32 µg/mL (≈ 42.8 µM)
MIC50 (Streptococcus pyogenes): 2 µg/mL (≈ 2.67 µM)
MIC90 (Streptococcus pyogenes): 8 µg/mL (≈ 10.7 µM)
MBC50 (Enterococcus faecalis [1]): 32 µg/mL (≈ 42.8 µM)
MIC50 (Enterococcus faecalis [1]): 16 µg/mL (≈ 21.4 µM)
MIC90 (Enterococcus faecalis [1]): 64 µg/mL (≈ 85.6 µM)
MBC50 (Staphylococcus aureus [2]): 32 µg/mL (≈ 42.8 µM)
MIC50 (Staphylococcus aureus [2]): 4 µg/mL (≈ 5.35 µM)
MIC90 (Staphylococcus aureus [2]): 16 µg/mL (≈ 21.4 µM)
MBC50 (Enterococcus faecalis [3]): 16 µg/mL (≈ 21.4 µM)
MBC90 (Enterococcus faecalis [3]): 128 µg/mL (≈ 171 µM)
MIC50 (Enterococcus faecalis [3]): 8 µg/mL (≈ 10.7 µM)
MIC90 (Enterococcus faecalis [3]): 32 µg/mL (≈ 42.8 µM)
MBC50 (Staphylococcus aureus [4]): 16 µg/mL (≈ 21.4 µM)
MBC90 (Staphylococcus aureus [4]): 64 µg/mL (≈ 85.6 µM)
MIC50 (Staphylococcus aureus [4]): 2 µg/mL (≈ 2.67 µM)
MIC90 (Staphylococcus aureus [4]): 8 µg/mL (≈ 10.7 µM)

C[C@@H](O)[C@H]1C(=O)N2C(C(=O)O)=C(SCCNC=N)C[C@H]12 [IMIPENEM ANHYDROUS]
MBC50 (Streptococcus pyogenes): 1 µg/mL (≈ 3.34 µM)
MBC90 (Streptococcus pyogenes): 4 µg/mL (≈ 13.4 µM)
MIC50 (Streptococcus pyogenes): 0.5 µg/mL (≈ 1.67 µM)
MIC90 (Streptococcus pyogenes): 1 µg/mL (≈ 3.34 µM)
MBC50 (Enterococcus faecalis [1]): 32 µg/mL (≈ 107 µM)
MBC90 (Enterococcus faecalis [1]): 128 µg/mL (≈ 428 µM)
MIC50 (Enterococcus faecalis [1]): 16 µg/mL (≈ 53.4 µM)
MIC90 (Enterococcus faecalis [1]): 32 µg/mL (≈ 107 µM)
MBC50 (Staphylococcus aureus [2]): 64 µg/mL (≈ 214 µM)
MBC90 (Staphylococcus aureus [2]): 256 µg/mL (≈ 855 µM)
MIC50 (Staphylococcus aureus [2]): 16 µg/mL (≈ 53.4 µM)
MIC90 (Staphylococcus aureus [2]): 128 µg/mL (≈ 428 µM)
MBC50 (Enterococcus faecalis [3]): 16 µg/mL (≈ 53.4 µM)
MBC90 (Enterococcus faecalis [3]): 64 µg/mL (≈ 214 µM)
MIC50 (Enterococcus faecalis [3]): 4 µg/mL (≈ 13.4 µM)
MIC90 (Enterococcus faecalis [3]): 16 µg/mL (≈ 53.4 µM)
MBC50 (Staphylococcus aureus [4]): 4 µg/mL (≈ 13.4 µM)
MBC90 (Staphylococcus aureus [4]): 16 µg/mL (≈ 53.4 µM)
MIC50 (Staphylococcus aureus [4]): 1 µg/mL (≈ 3.34 µM)
MIC90 (Staphylococcus aureus [4]): 4 µg/mL (≈ 13.4 µM)

CC(=O)NC[C@H]1CN(c2ccc(N3CCOCC3)c(F)c2)C(=O)O1 [LINEZOLID]
MBC50 (Streptococcus pyogenes): 1 µg/mL (≈ 2.96 µM)
MBC90 (Streptococcus pyogenes): 2 µg/mL (≈ 5.93 µM)
MIC50 (Streptococcus pyogenes): 0.5 µg/mL (≈ 1.48 µM)
MIC90 (Streptococcus pyogenes): 1 µg/mL (≈ 2.96 µM)
MBC50 (Enterococcus faecalis [1]): 4 µg/mL (≈ 11.9 µM)
MIC50 (Enterococcus faecalis [1]): 1 µg/mL (≈ 2.96 µM)
MIC90 (Enterococcus faecalis [1]): 2 µg/mL (≈ 5.93 µM)
MIC50 (Staphylococcus aureus [2]): 0.5 µg/mL (≈ 1.48 µM)
MIC90 (Staphylococcus aureus [2]): 2 µg/mL (≈ 5.93 µM)
MBC50 (Enterococcus faecalis [3]): 2 µg/mL (≈ 5.93 µM)
MBC90 (Enterococcus faecalis [3]): 4 µg/mL (≈ 11.9 µM)
MIC50 (Enterococcus faecalis [3]): 1 µg/mL (≈ 2.96 µM)
MIC90 (Enterococcus faecalis [3]): 2 µg/mL (≈ 5.93 µM)
MBC50 (Staphylococcus aureus [4]): 0.5 µg/mL (≈ 1.48 µM)
MBC90 (Staphylococcus aureus [4]): 2 µg/mL (≈ 5.93 µM)
MIC50 (Staphylococcus aureus [4]): 0.5 µg/mL (≈ 1.48 µM)
MIC90 (Staphylococcus aureus [4]): 2 µg/mL (≈ 5.93 µM)

CN(C)c1ccc(O)c2c1C[C@H]1C[C@H]3[C@H](N(C)C)C(O)=C(C(N)=O)C(=O)[C@@]3(O)C(O)=C1C2=O [MINOCYCLINE]
MBC50 (Streptococcus pyogenes): 8 µg/mL (≈ 17.5 µM)
MBC90 (Streptococcus pyogenes): 16 µg/mL (≈ 35 µM)
MIC50 (Streptococcus pyogenes): 4 µg/mL (≈ 8.74 µM)
MIC90 (Streptococcus pyogenes): 8 µg/mL (≈ 17.5 µM)
MIC50 (Enterococcus faecalis [1]): 16 µg/mL (≈ 35 µM)
MIC90 (Enterococcus faecalis [1]): 32 µg/mL (≈ 69.9 µM)
MIC50 (Staphylococcus aureus [2]): 4 µg/mL (≈ 8.74 µM)
MIC90 (Staphylococcus aureus [2]): 8 µg/mL (≈ 17.5 µM)
MBC50 (Enterococcus faecalis [3]): 16 µg/mL (≈ 35 µM)
MBC90 (Enterococcus faecalis [3]): 64 µg/mL (≈ 140 µM)
MIC50 (Enterococcus faecalis [3]): 8 µg/mL (≈ 17.5 µM)
MIC90 (Enterococcus faecalis [3]): 16 µg/mL (≈ 35 µM)
MBC50 (Staphylococcus aureus [4]): 8 µg/mL (≈ 17.5 µM)
MBC90 (Staphylococcus aureus [4]): 32 µg/mL (≈ 69.9 µM)
MIC50 (Staphylococcus aureus [4]): 4 µg/mL (≈ 8.74 µM)
MIC90 (Staphylococcus aureus [4]): 8 µg/mL (≈ 17.5 µM)

CN[C@H](CC(C)C)C(=O)N[C@H]1C(=O)N[C@@H](CC(N)=O)C(=O)N[C@H]2C(=O)N[C@H]3C(=O)N[C@H](C(=O)N[C@H](C(=O)O)c4cc(O)cc(O)c4-c4cc3ccc4O)[C@H](O)c3ccc(c(Cl)c3)Oc3cc2cc(c3O[C@@H]2O[C@H](CO)[C@@H](O)[C@H](O)[C@H]2O[C@H]2C[C@](C)(N)[C@H](O)[C@H](C)O2)Oc2ccc(cc2Cl)[C@H]1O [VANCOMYCIN]
MBC50 (Streptococcus pyogenes): 1 µg/mL (≈ 0.69 µM)
MBC90 (Streptococcus pyogenes): 2 µg/mL (≈ 1.38 µM)
MIC50 (Streptococcus pyogenes): 0.5 µg/mL (≈ 0.345 µM)
MIC90 (Streptococcus pyogenes): 1 µg/mL (≈ 0.69 µM)
MBC50 (Enterococcus faecalis [1]): 64 µg/mL (≈ 44.2 µM)
MBC90 (Enterococcus faecalis [1]): 256 µg/mL (≈ 177 µM)
MIC50 (Enterococcus faecalis [1]): 32 µg/mL (≈ 22.1 µM)
MIC90 (Enterococcus faecalis [1]): 64 µg/mL (≈ 44.2 µM)
MBC50 (Staphylococcus aureus [2]): 1 µg/mL (≈ 0.69 µM)
MBC90 (Staphylococcus aureus [2]): 2 µg/mL (≈ 1.38 µM)
MIC50 (Staphylococcus aureus [2]): 1 µg/mL (≈ 0.69 µM)
MIC90 (Staphylococcus aureus [2]): 2 µg/mL (≈ 1.38 µM)
MBC50 (Enterococcus faecalis [3]): 2 µg/mL (≈ 1.38 µM)
MBC90 (Enterococcus faecalis [3]): 4 µg/mL (≈ 2.76 µM)
MIC50 (Enterococcus faecalis [3]): 1 µg/mL (≈ 0.69 µM)
MIC90 (Enterococcus faecalis [3]): 2 µg/mL (≈ 1.38 µM)
MBC50 (Staphylococcus aureus [4]): 1 µg/mL (≈ 0.69 µM)
MBC90 (Staphylococcus aureus [4]): 2 µg/mL (≈ 1.38 µM)
MIC50 (Staphylococcus aureus [4]): 1 µg/mL (≈ 0.69 µM)
MIC90 (Staphylococcus aureus [4]): 2 µg/mL (≈ 1.38 µM)
